Here are results for ten molecules from article doi:10.1101/2021.08.28.458030v1 (biorxiv, 2021).

Structures are written as SMILES. pIC50: −log10 of the molar value. Bounds are passed on as bounds.

Experiment [1] has as its target lactate dehydrogenase B (LDHB) (Homo sapiens, UniProt P07195). The experiment is described as follows: NADH fluorometric LDH assay. The experiment is classed as biochemical.
In experiment [2] the target is T1, lactate dehydrogenase A (LDHA) (Homo sapiens, UniProt P00338). The experiment is described as follows: NADH fluorometric LDH assay. It is filed as biochemical.
The target in experiment [3] is T1, lactate dehydrogenase A (LDHA). The experiment is described as follows: biochemical.
For another experiment, the target named is T2, CASTOR1 (Homo sapiens, UniProt Q8WTX7).
T2 sequence (Q8WTX7 1-329): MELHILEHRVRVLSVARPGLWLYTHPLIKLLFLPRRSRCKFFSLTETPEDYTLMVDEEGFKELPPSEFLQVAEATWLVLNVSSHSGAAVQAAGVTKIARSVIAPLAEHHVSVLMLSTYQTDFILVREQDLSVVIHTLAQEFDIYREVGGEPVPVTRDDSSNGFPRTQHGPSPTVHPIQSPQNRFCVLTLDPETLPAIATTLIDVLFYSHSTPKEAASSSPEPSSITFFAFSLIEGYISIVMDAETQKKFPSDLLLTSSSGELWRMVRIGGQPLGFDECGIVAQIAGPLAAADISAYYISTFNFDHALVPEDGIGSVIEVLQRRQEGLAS
In words: equilibrium dialysis MS. Conditions: 150 mM ammonium acetate pH 7.4, 4 C, metabolite pool. It is filed as binding. In general terms: Equilibrium dialysis compares concentrations on both sides of a semipermeable membrane.

lactate dehydrogenase B (LDHB), sequence (P07195 2-334): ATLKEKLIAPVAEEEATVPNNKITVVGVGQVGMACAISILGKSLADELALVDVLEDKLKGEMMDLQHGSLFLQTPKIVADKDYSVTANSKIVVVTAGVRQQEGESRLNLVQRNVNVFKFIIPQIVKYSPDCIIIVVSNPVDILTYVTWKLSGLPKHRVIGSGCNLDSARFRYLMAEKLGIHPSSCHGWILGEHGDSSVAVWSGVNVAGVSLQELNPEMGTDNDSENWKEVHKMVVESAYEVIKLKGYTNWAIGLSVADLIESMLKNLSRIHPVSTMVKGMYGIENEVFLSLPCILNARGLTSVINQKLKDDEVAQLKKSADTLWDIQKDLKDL

Consider `Nc1ncnc2c1ncn2[C@@H]1O[C@H](COP(=O)(O)OP(=O)(O)O)[C@@H](O)[C@H]1O` [ADP], for which the pIC50 was 1.83 in experiment [1] and 2.30 in experiment [2]. Consider `Nc1ncnc2c1ncn2[C@@H]1O[C@H](COP(=O)(O)O)[C@@H](O)[C@H]1O` [AMP], for which the negative-log IC50 (pIC50) in experiment [1] was 1.29; in experiment [2], 1.61. `CC(=O)SCCNC(=O)CCNC(=O)[C@H](O)C(C)(C)COP(=O)(O)OP(=O)(O)OC[C@H]1O[C@@H](n2cnc3c(N)ncnc32)[C@H](O)[C@@H]1OP(=O)(O)O` [C2:0-CoA] showed a pIC50 in experiment [1] of under 4.00. On the same count and under the same terms, then `CCCC(=O)SCCNC(=O)CCNC(=O)[C@H](O)C(C)(C)COP(=O)(O)OP(=O)(O)OC[C@H]1O[C@@H](n2cnc3c(N)ncnc32)[C@H](O)[C@@H]1OP(=O)(O)O` [C4:0-CoA], with under 4.00; and `CCCCCCCC(=O)SCCNC(=O)CCNC(=O)[C@H](O)C(C)(C)COP(=O)(O)OP(=O)(O)OC[C@H]1O[C@@H](n2cnc3c(N)ncnc32)[C@H](O)[C@@H]1OP(=O)(O)O` [C8:0-CoA], with under 4.00. For the molecule `CCCCCCCCCCCC(=O)SCCNC(=O)CCNC(=O)[C@H](O)C(C)(C)COP(=O)(O)OP(=O)(O)OC[C@H]1O[C@@H](n2cnc3c(N)ncnc32)[C@H](O)[C@@H]1OP(=O)(O)O` [C12:0-CoA], the pIC50 in experiment [1] and in experiment [2] was under 4.00 each time. Take `CCCCCCCCCCCCCCCC(=O)SCCNC(=O)CCNC(=O)[C@H](O)C(C)(C)COP(=O)(O)OP(=O)(O)OC[C@H]1O[C@@H](n2cnc3c(N)ncnc32)[C@H](O)[C@@H]1OP(=O)(O)O` [C16:0-CoA]: the pIC50 in experiment [3] was 5.81; in experiment [1] it was under 4.00; in experiment [2], about 6.00. Consider `CCCCCCCC/C=C\CCCCCCCC(=O)SCCNC(=O)CCNC(=O)[C@H](O)C(C)(C)COP(=O)(O)OP(=O)(O)OC[C@H]1O[C@@H](n2cnc3c(N)ncnc32)[C@H](O)[C@@H]1OP(=O)(O)O` [C18:1-CoA], for which the values for the negative logarithm of the IC50 (pIC50) in experiment [3], in experiment [1] and in experiment [2] were 6.10, under 4.00 and about 6.00, respectively. As to `CCCCCCCCCCCCCCCCCCCC(=O)SCCNC(=O)CCNC(=O)[C@H](O)C(C)(C)COP(=O)(O)OP(=O)(O)OC[C@H]1O[C@@H](n2cnc3c(N)ncnc32)[C@H](O)[C@@H]1OP(=O)(O)O` [C20:0-CoA], the pIC50 was 6.00 in experiment [3] and under 4.00 in experiment [1]. As for `N=C(N)NCCC[C@H](N)C(=O)O` [arginine], on CASTOR1, the “equilibrium dialysis MS (MIDAS)” value was “CASTOR1 enriched arginine (Fig. 1C)”.

For orientation: pIC50 means −log10 of the IC50, conventionally taken in molar units. A lower pIC50 goes with a large IC50.
